In US20220331348A1, “METHOD OF PREPARING PENTACYCLIC TRITERPENOID SAPONINS AND DRUG COMPOSITION” (CHINA PHARMACEUTICAL UNIVERSITY, priority 2019, published 2022):
Marks after values point to notes of the source that are not given here.

What was measured:
[1] = tested on: AMPK and mTOR signaling pathways in polycystic kidney epithelial cells; test: Western blot of AMPK and proliferation-related signal molecules in polycystic kidney epithelial cells; type: cell-based, human; conditions: 10 μM, 48 h, Western blot (FIG. 16)
From the text: Cell and reagent: complete media for human ADPKD cyst lining epithelial cell lines WT9-12 and DMEM were purchased from ATCC Company; fetal calf serums were purchased from Gibco Company; Cell Counting Kit-8 was purchased from DOJINDO Company; Click-iT® EdU Imaging Kits were purchased from Invitrogen™ Thermo Fisher Scientific Company; Caspase -3/CPP32 Colorimetric Assay Kit was purchased from BioVision Company; Annexin V/PI double-staining flow type cell apoptosis detection kits were purchased from Bender Company; and anti-Phospho-(AMPKa, mTOR, p70S6K, 4E-BP1) antibodies were purchased from Cell Signaling Technology Company.
Detection on protein expression with Western blot: cells in the control group and the treatment group (intervening the polycystic kidney epithelial cell with 10 μM of asperosaponin VI for 48 h) were collected, cells were lysed with a RIPA lysate for extraction of total proteins, the concentration of proteins was detected with a BCA method, and […] of sample proteins were taken for sample addition in sequence; after SDS-PAGE electrophoresis, the sample proteins were transferred onto PVDF membranes at a constant current (I=250 mA), were blocked for 1 h with 5% BSA and were incubated for 24 h with different primary antibodies; after the membranes were washed four times with TBST, incubation was conducted for 1.5 h at a normal temperature by using HRP-labeled second antibodies (1:10000); and after the membranes were washed four times with TBST, the proteins were developed with an ECL, and protein bands of various groups were subjected to gray scale analysis with an Image-J gel image analysis software.

[2] = tested on: high fat diet induced NASH model rats; test: High fat diet (HFD) induced NASH rat model; type: in vivo; conditions: for Liver TC / Liver TG / Serum LDL-c / Serum TG: HFD induced NASH model rats; for Liver TC / Liver TG / Serum LDL-c / Serum TG / ALT / AST: n = 8; for ALT / AST: serum of HFD induced NASH model rats
Experimental: Animal: 32 SD male rats of SPF level with 6 weeks old and 220 g were purchased from Beijing Vital River Laboratory Animal Technology Co., Ltd. All the animals maintained 12 h alternative circadian rhythm with free access to food.
Reagent: the ginsenoside Ro (I) was purchased from Shanghai Boka Chemistry Technology Co., Ltd; obeticholic acid (OCA) was purchased from Jiangsu Vcare PharmaTech Co., Ltd; high fat diets were purchased from Research Diets (D12492, 60 kcal %); and standard feeds were purchased from Research Diets (D12450B, 10 kcal %).
The rats were randomly divided into 4 groups based on the weight: a control group (CHOW), a high fat diet model group (HFD), a positive drug obeticholic acid (OCA, 5 mg/Kg) group (HFD+OCA) and a ginsenoside Ro (Ro for short, 5 mg/kg) group (HFD+Ro). The control group was fed with the standard feeds and drank water normally; and the rest groups were fed with the high fat diets, drank 10% aqueous sucrose solution for replacing the water and were modeled for 20 weeks.
After 20 weeks, the control group and the high fat diet model group were given with a CMC-Na solution with the volume fraction of 0.5% intragastrically every day, the HFD+OCA group was given with the obeticholic acid (5 mg/Kg) intragastrically every day, and the HFD+Ro was given with the ginsenoside Ro (5 mg/Kg) intragastrically every day. Administration was conducted for 8 weeks, during which, the control group was given with the standard feeds and drank the water normally, and the rest three groups were given with the high fat diets and drank 10% aqueous sucrose solution. The rats in each group were weighed every day, weights, hairs, feces and activity conditions were carefully observed and recorded.
The rats were deprived of food but not water for 12 h in advance; and the next morning, blood was taken from eye sockets, the rats were sacrificed, and livers were harvested. Right liver lobule tissues were fixed with 4% paraformaldehyde for HE stained slicing. A part of liver tissues were divided into 3 parts, which were snap-frozen in liquid nitrogen for subsequent detection of other indexes.
Whole blood was left to still standing for 2 h at room temperature, centrifugation was conducted for 15 min at 3000 rpm, and a serum was collected. 100 Mg of liver tissues were taken and homogenized with 0.9 mL of precooled normal saline, a homogenate was centrifuged for 15 min at 4° C. and 3000 rpm, and a supernatant was taken. Both of the serum and the supernatant were sent to Pathologic Department of Hospital of Integrated Traditional Chinese and Western Medicine in Jiangsu Province for determination of levels of triglyceride (TG), total cholesterol (TC), low density lipoprotein cholesterin (LDL-c) and high density lipoprotein cholesterol (HDL-c) in the serum and levels of the TG and the TC in the supernatant of the homogenate of the liver tissues with the full-automatic biochemical analyzer.
Pretreated tissues were sent to Google Biotechnology Co., Ltd for preparing HE stained slices and oil red stained slices.
Liver tissues preserved at −80° C. were put in the liquid nitrogen, about 10 mg of the liver tissues were quickly dissected out, 500 μL of precooled tissue lysate was added, and the tissues were homogenized with a homogenizer and then left to lyse on ice for 30 min; and centrifugation was conducted for 15min at 4° C. and 12000 rpm, […] of a supernatant was sucked to a clean EP tube, […] of the supernatant was taken for BCA protein quantification, […] of 5*loading buffer was added in the rest protein supernatant for denaturing by boiling, SDS-PAGE electrophoresis was conducted subsequently, the proteins were transferred onto a PVDF membrane, then incubation and elution of a relevant antibody were conducted, and finally, a chemiluminescence apparatus was employed for imaging analysis.

[3] = HFD NASH rats, summary in words
[4] = HFD NASH rats, 5 mg/Kg intragastrically every day, 8 weeks (FIG. 4)
[5] = HFD NASH rats, 5 mg/Kg, 8 weeks, q-PCR (FIG. 6)
[6] = HFD NASH rats, 5 mg/Kg, 8 weeks, q-PCR (FIG. 7)

| SMILES | inflammatory responses of the livers [2, 3] | lipid accumulation, caused by the high fat diets, of the rat livers [2, 3] | Liver TC ([2]; 5 mg/Kg) | Liver TG ([2]; 5 mg/Kg) | Serum LDL-c ([2]; 5 mg/Kg) | Serum TG ([2]; 5 mg/Kg) | ALT ([2]; 5 mg/Kg) | AST ([2]; 5 mg/Kg) | also measured |
| --- | --- | --- | --- | --- | --- | --- | --- | --- | --- |
| CC1(C)CC[C@]2(C(=O)O[C@@H]3O[C@H](CO[C@@H]4O[C@H](CO)[C@@H](O)[C@H](O)[C@H]4O)[C@@H](O)[C@H](O)[C@H]3O)CC[C@]3(C)C(=CC[C@@H]4[C@@]5(C)CC[C@H](O[C@@H]6OC[C@H](O)[C@H](O)[C@H]6O)[C@@](C)(CO)[C@@H]5CC[C@]43C)[C@@H]2C1 [(II), asperosaponin VI] |  |  |  |  |  |  |  |  | phosphorylation level of 4E-BP1 [1]: lowered; phosphorylation level of AMPKa [1]: increased; phosphorylation level of mTOR [1]: lowered; phosphorylation level of p70S6K [1]: lowered |
| C[C@H]1O[C@@H](O[C@H]2CC[C@@]3(C)[C@@H](CC[C@]4(C)[C@@H]3C=C[C@]35OC[C@@]6(CCC(C)(C)C[C@H]63)[C@H](O)C[C@]54C)[C@]2(C)CO)[C@H](O)[C@@H](O[C@@H]2O[C@H](CO)[C@@H](O)[C@H](O)[C@H]2O)[C@H]1O [(VIII), saikosaponin D] | inhibit | effectively lower | 0.509 ± 0.248** mmoL/gprot | 1.173 ± 0.606*** mmoL/gprot | 46.75 ± 7.35** mg/dL | 19.66 ± 5.12* mg/dL | 67.74 ± 8.29** U/L | 121.43 ± 9.28** U/L |  |
| C[C@@H]1CC[C@]2(C(=O)O)CC[C@]3(C)C(=CC[C@@H]4[C@@]5(C)CC[C@H](O[C@@H]6OC[C@H](O)[C@H](O)[C@H]6O)C(C)(C)[C@@H]5CC[C@]43C)[C@@H]2[C@]1(C)O [(XIII), ziyuglycoside II] | inhibit | effectively lower | 0.503 ± 0.256** mmoL/gprot | 1.299 ± 0.387** mmoL/gprot | 45.36 ± 5.37** mg/dL | 19.41 ± 4.37* mg/dL | 69.28 ± 12.33** U/L | 122.16 ± 17.38** U/L |  |
| C[C@H]1O[C@@H](O[C@H]2CC[C@@]3(C)[C@@H](CC[C@]4(C)[C@@H]3C=C[C@]35OC[C@@]6(CCC(C)(C)C[C@H]63)[C@@H](O)C[C@]54C)[C@]2(C)CO)[C@H](O)[C@@H](O[C@@H]2O[C@H](CO)[C@@H](O)[C@H](O)[C@H]2O)[C@H]1O [(VII), saikosaponin A] | inhibit | effectively lower | 0.518 ± 0.133** mmoL/gprot | 1.268 ± 0.294** mmoL/gprot | 47.06 ± 7.83* mg/dL | 20.43 ± 4.04* mg/dL | 71.36 ± 9.26* U/L | 115.24 ± 19.23*** U/L |  |
| CC1(C)CC[C@]2(C(=O)O[C@@H]3O[C@H](CO)[C@@H](O)[C@H](O)[C@H]3O)CC[C@]3(C)C(=CC[C@@H]4[C@@]5(C)CC[C@H](O[C@@H]6O[C@H](C(=O)O)[C@@H](O)[C@H](O)[C@H]6O[C@@H]6O[C@H](CO)[C@@H](O)[C@H](O)[C@H]6O)C(C)(C)[C@@H]5CC[C@]43C)[C@@H]2C1 [(I), ginsenoside Ro] | inhibits | significantly lower |  |  |  |  |  |  | level of the HDL-c in the serum [2, 4]: effectively lower; level of the LDL-c in the serum [2, 4]: effectively lower; level of the TC in the serum [2, 4]: effectively lower; contents of the TC in the livers ([2]; HFD NASH rats, 5 mg/Kg intragastrically every day, 8 weeks (FIG. 5)): significantly lowered; level of the TG in the serum ([2]; HFD NASH rats, 5 mg/Kg intragastrically every day, 8 weeks, vs HFD model group (FIG. 4)): significantly lower; level of the TG in the liver ([2]; HFD NASH rats, 5 mg/Kg intragastrically every day, 8 weeks, vs HFD model group (FIG. 5)): significantly lower; mRNA expression level of IL-6 in liver [2, 5]: significantly inhibit increase; mRNA expression level of IL-10 in liver [2, 5]: significantly inhibit increase; mRNA expression level of TNF-α in liver [2, 5]: significantly inhibit increase; mRNA expression level of TGF-β in liver [2, 6]: significantly inhibit increase; mRNA expression level of α-SMA in liver [2, 6]: significantly inhibit increase; liver fibrosis [2, 3]: inhibits |
| C[C@@H]1CC[C@]2(C(=O)O[C@@H]3O[C@H](CO)[C@@H](O)[C@H](O)[C@H]3O)CC[C@]3(C)C(=CC[C@@H]4[C@@]5(C)CC[C@H](O[C@@H]6OC[C@H](O)[C@H](O)[C@H]6O)C(C)(C)[C@@H]5CC[C@]43C)[C@@H]2[C@]1(C)O [(XII), ziyuglycoside I] | inhibit | effectively lower | 0.547 ± 0.272* mmoL/gprot | 1.302 ± 0.443** mmoL/gprot | 48.52 ± 6.98* mg/dL | 18.32 ± 2.51** mg/dL | 74.03 ± 12.38* U/L | 120.91 ± 19.32** U/L |  |
